Measured values: patent US20230143612A1 (Arbutus Biopharma Corporation, priority 2020, published 2023)

Target: PD-L1 His protein / PD-1 Fc protein (Homo sapiens, UniProt Q9NZQ7)
Test: HTRF Assay (PD-1/PD-L1 interaction)
Assay type: binding
Conditions: PD-L1 His 6 nM, PD-1 Fc 6 nM
Outline: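 HTRF: PD-L1 His (6 nM final), compound (3-fold dilutions, 20 μM to 0.001 μM final) and PD-1 Fc (6 nM final) preincubated 15 min at room temperature. Anti-human IgG-XL665 and anti-6HIS Tb cryptate (mixed at 6.7 nM and 0.35 nM) then added for 1 h at room temperature before reading.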

Sequence of PD-L1 His protein / PD-1 Fc protein (Q9NZQ7 19-238 limits assumed): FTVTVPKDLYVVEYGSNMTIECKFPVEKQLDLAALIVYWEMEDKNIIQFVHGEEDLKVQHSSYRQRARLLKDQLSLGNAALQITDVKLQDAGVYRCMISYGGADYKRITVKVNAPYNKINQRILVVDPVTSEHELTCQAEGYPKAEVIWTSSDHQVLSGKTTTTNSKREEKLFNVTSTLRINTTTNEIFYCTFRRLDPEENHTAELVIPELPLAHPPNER

Going from `COc1nc(-c2cccc(-c3cccc(-c4cc5c(=O)n(C)c(CNC[C@@H](O)CC(=O)N(C)C)nn5c4)c3Cl)c2Cl)ccc1CNC[C@@H]1CCC(=O)N1` [Example 481, (S)-4-(((6-(2,2′-Dichloro-3′-(6-methoxy-5-(((((S)-5-oxopyrrolidin-2-yl)methyl)amino)methyl)pyridin-2-yl)-[1,1′-biphenyl]-3-yl)-3-methyl-4-oxo-3,4-dihydropyrrolo[2,1-f][1,2,4]triazin-2-yl)methyl)amino)-3-hydroxy-N,N-dimethylbutanamide] to `COc1nc(-c2cccc(-c3cccc(-c4cc5c(=O)n(C)c(CNC[C@@H](O)CC(=O)O)nn5c4)c3Cl)c2Cl)ccc1CNC[C@@H]1CCC(=O)N1` [Example 493, (3S)-4-[[6-[2-Chloro-3-[2-chloro-3-[6-methoxy-5-[[[(2S)-5-oxopyrrolidin-2-yl]methylamino]methyl]-2-pyridyl]phenyl]phenyl]-3-methyl-4-oxo-pyrrolo[2,1-f][1,2,4]triazin-2-yl]methylamino]-3-hydroxy-butanoic acid], the IC50 falls from 42 nM to 0.1 nM (420-fold). The second is the more potent here.

Going from `COC(=O)CNCc1nn2cc(-c3cccc(-c4cccc(-c5ccc(CNC[C@@H]6CCC(=O)N6)c(OC)n5)c4Cl)c3Cl)cc2c(=O)n1C` [Example 482, Methyl 2-[[6-[2-chloro-3-[2-chloro-3-[6-methoxy-5-[[[(2S)-5-oxopyrrolidin-2-yl]methylamino]methyl]-2-pyridyl]phenyl]phenyl]-3-methyl-4-oxo-pyrrolo[2,1-f][1,2,4]triazin-2-yl]methylamino]acetate] to `COc1nc(-c2cccc(-c3cccc(-c4cc5c(=O)n(C)c(CNCC(=O)O)nn5c4)c3Cl)c2Cl)ccc1CNC[C@@H]1CCC(=O)N1` [Example 487, 2-[[6-[2-Chloro-3-[2-chloro-3-[6-methoxy-5-[[[(2S)-5-oxopyrrolidin-2-yl]methylamino]methyl]-2-pyridyl]phenyl]phenyl]-3-methyl-4-oxo-pyrrolo[2,1-f][1,2,4]triazin-2-yl]methylamino]acetic acid], the IC50 falls from 28 nM to 0.1 nM (280-fold). The second is the more potent here.

First: COc1nc(-c2cccc(-c3cccc(N4Cc5ccc(CNC[C@@H]6CCC(=O)N6)cc5C4=O)c3Cl)c2Cl)ccc1CNC[C@@H]1CCC(=O)N1 [Example 483, 2-(2,2′-Dichloro-3′-(6-methoxy-5-(((((S)-5-oxopyrrolidin-2-yl)methyl)amino)methyl)pyridin-2-yl)-[1,1′-biphenyl]-3-yl)-6-(((((S)-5-oxopyrrolidin-2-yl)methyl)amino)methyl)isoindolin-1-one]
Second: COc1cc(-c2cccc(-c3cccc(-c4ccc(CNC[C@@H]5CCC(=O)N5)c(OC)n4)c3Cl)c2Cl)cc2c1CN(CCC1(O)CCC1)CC2 [Example 484, (S)-5-((((6-(2,2′-Dichloro-3′-(2-(2-(1-hydroxycyclobutyl)ethyl)-8-methoxy-1,2,3,4-tetrahydroisoquinolin-6-yl)-[1,1′-biphenyl]-3-yl)-2-methoxypyridin-3-yl)methyl)amino)methyl)pyrrolidin-2-one]
The IC50 of the first is 3-fold lower: 0.1 nM for the first, 0.3 nM for the second. The first is the more potent here.

Compared with `COc1cc(-c2cccc(-c3cccc(-c4ccc(CNC[C@@H]5CCC(=O)N5)c(OC)n4)c3Cl)c2Cl)cc2c1CN(CCC(C)(C)O)CC2` [Example 485, (S)-5-((((6-(2,2′-Dichloro-3′-(2-(3-hydroxy-3-methylbutyl)-8-methoxy-1,2,3,4-tetrahydroisoquinolin-6-yl)-[1,1′-biphenyl]-3-yl)-2-methoxypyridin-3-yl)methyl)amino)methyl)pyrrolidin-2-one], `COc1cc(-c2cccc(-c3cccc(-c4ccc(CNC[C@@H]5CCC(=O)N5)c(OC)n4)c3Cl)c2Cl)cc2c1CN(CC(O)C(C)C)CC2` (stereo partly drawn) [Example 488, (5S)-5-((((6-(2,2′-Dichloro-3′-(2-(2-hydroxy-3-methylbutyl)-8-methoxy-1,2,3,4-tetrahydroisoquinolin-6-yl)-[1,1′-biphenyl]-3-yl)-2-methoxypyridin-3-yl)methyl)amino)methyl)pyrrolidin-2-one] is 2-fold higher in IC50: 0.1 nM for the first, 0.2 nM for the second. The first is the more potent here.

First: COc1nc(-c2cccc(-c3cccc(-c4cc5c(=O)n(C)c(CN[C@H]6CC[C@H](O)CC6)nn5c4)c3Cl)c2Cl)ccc1CNC[C@@H]1CCC(=O)N1 [Example 486, 6-[2-Chloro-3-[2-chloro-3-[6-methoxy-5-[[[(2S)-5-oxopyrrolidin-2-yl]methylamino]methyl]-2-pyridyl]phenyl]phenyl]-2-[[(4-hydroxycyclohexyl)amino]methyl]-3-methyl-pyrrolo[2,1-f][1,2,4]triazin-4-one]
Second: COc1nc(-c2cccc(-c3cccc(-c4cc5c(=O)n(C)c(CNCCC(F)F)nn5c4)c3Cl)c2Cl)ccc1CNC[C@@H]1CCC(=O)N1 [compound 465, (S)-6-(2,2′-Dichloro-3′-(6-methoxy-5-((((5-oxopyrrolidin-2-yl)methyl)amino)methyl)pyridin-2-yl)-[1,1′-biphenyl]-3-yl)-2-(((3,3-difluoropropyl)amino)methyl)-3-methylpyrrolo[2,1-f][1,2,4]triazin-4(3H)-one]
The IC50 of the first is 35-fold lower: 0.4 nM for the first, 14 nM for the second.

Going from `COC(=O)C[C@H](O)CNCc1nn2cc(-c3cccc(-c4cccc(-c5ccc(CNC[C@@H]6CCC(=O)N6)c(OC)n5)c4Cl)c3Cl)cc2c(=O)n1C` [Example 489, Methyl (3S)-4-[[6-[2-chloro-3-[2-chloro-3-[6-methoxy-5-[[[(2S)-5-oxopyrrolidin-2-yl]methylamino]methyl]-2-pyridyl]phenyl]phenyl]-3-methyl-4-oxo-pyrrolo[2,1-f][1,2,4]triazin-2-yl]methylamino]-3-hydroxy-butanoate] to `COC(=O)C(C)(C)CNCc1nn2cc(-c3cccc(-c4cccc(-c5ccc(CNC[C@@H]6CCC(=O)N6)c(OC)n5)c4Cl)c3Cl)cc2c(=O)n1C` [Example 495, Methyl 3-[[6-[2-chloro-3-[2-chloro-3-[6-methoxy-5-[[[(2S)-5-oxopyrrolidin-2-yl]methylamino]methyl]-2-pyridyl]phenyl]phenyl]-3-methyl-4-oxo-pyrrolo[2,1-f][1,2,4]triazin-2-yl]methylamino]-2,2-dimethyl-propanoate], the IC50 falls from 1500 nM to 0.7 nM (2100-fold). The second is the more potent here.

First: COc1nc(-c2cccc(-c3cccc(-c4cc5c(=O)n(C)c(CNCCCF)nn5c4)c3Cl)c2Cl)cc(Cl)c1CNC[C@@H]1CCC(=O)N1 [Example 490, (S)-6-(2,2′-Dichloro-3′-(4-chloro-6-methoxy-5-((((5-oxopyrrolidin-2-yl)methyl)amino)methyl)pyridin-2-yl)-[1,1′-biphenyl]-3-yl)-2-(((3-fluoropropyl)amino)methyl)-3-methylpyrrolo[2,1-f][1,2,4]triazin-4(3H)-one]
Second: COc1nc(-c2cccc(-c3cccc(-c4cc5c(=O)n(C)c(CNCCO)nn5c4)c3Cl)c2Cl)cc(Cl)c1CNC[C@@H]1CCC(=O)N1 [Example 491, (S)-6-(2,2′-Dichloro-3′-(4-chloro-6-methoxy-5-((((5-oxopyrrolidin-2-yl)methyl)amino)methyl)pyridin-2-yl)-[1,1′-biphenyl]-3-yl)-2-(((2-hydroxyethyl)amino)methyl)-3-methylpyrrolo[2,1-f][1,2,4]triazin-4(3H)-one]
The IC50 of the first is 7-fold lower: 0.1 nM for the first, 0.7 nM for the second.

Going from `COc1nc(-c2cccc(-c3cccc(-c4cc5c(=O)n(C)c(CN6CC(C)(O)C6)nn5c4)c3Cl)c2Cl)cc(Cl)c1CNC[C@@H]1CCC(=O)N1` [Example 492, (S)-6-(2,2′-Dichloro-3′-(4-chloro-6-methoxy-5-((((5-oxopyrrolidin-2-yl)methyl)amino)methyl)pyridin-2-yl)-[1,1′-biphenyl]-3-yl)-2-((3-hydroxy-3-methylazetidin-1-yl)methyl)-3-methylpyrrolo[2,1-f][1,2,4]triazin-4(3H)-one] to `COc1nc(-c2cccc(-c3cccc(-c4cc5c(=O)n(C)c(CNC6CC(C)(O)C6)nn5c4)c3Cl)c2Cl)cc(F)c1CNC[C@@H]1CCC(=O)N1` (stereo partly drawn) [compound 480, (S)-6-(2,2′-dichloro-3′-(4-fluoro-6-methoxy-5-((((5-oxopyrrolidin-2-yl)methyl)amino)methyl)pyridin-2-yl)-[1,1′-biphenyl]-3-yl)-2-(((3-hydroxy-3-methylcyclobutyl)amino)methyl)-3-methylpyrrolo[2,1-f][1,2,4]triazin-4(3H)-one], the IC50 rises from 0.6 nM to 69 nM (120-fold).

Compound `COc1nc(-c2cccc(-c3cccc(-c4ccc(CN5CCCC[C@H]5C(=O)O)c(OC)n4)c3Cl)c2Cl)ccc1CNC[C@@H]1CCC(=O)N1` [Example 494, (S)-1-((6-(2,2′-Dichloro-3′-(6-methoxy-5-(((((S)-5-oxopyrrolidin-2-yl)methyl)amino)-methyl)pyridin-2-yl)-[1,1′-biphenyl]-3-yl)-2-methoxypyridin-3-yl)methyl)piperidine-2-carboxylic acid] has an IC50 of 0.1 nM.
